Reference: ChEMBL document CHEMBL1221299, “Unnatural enantiomer of chaetocin shows strong apoptosis-inducing activity through caspase-8/caspase-3 activation” (Bioorg Med Chem Lett, 2010)
Active and inactive are the calls of the source. The calls are words filed in the database; no cut-off is given here.

How the values were obtained:
Format in all cases: functional, cell-based
HL-60 [1] = assay: Induction of apoptosis in human HL60 cells assessed as increase of cellular ROS level
HL-60 [2] = assay: Induction of apoptosis in human HL60 cells assessed as nuclear fragmentation at 0.3 uM after 4 hrs using DAPI/PI by confocal laser microscopy analysis
HL-60 [3] = assay: Induction of apoptosis in human HL60 cells assessed as reduction of cell viability after 4 hrs by alamar blue assay
HL-60 [4] = assay: Induction of apoptosis in human HL60 cells assessed as activation of caspase 3 at 0.3 uM after 2 hrs by Western blot analysis
HL-60 [5] = assay: Induction of apoptosis in human HL60 cells assessed as necrotic cell death at 30 uM after 4 hrs using DAPI/PI by confocal laser microscopy analysis
HL-60 [6] = assay: Induction of apoptosis in human HL60 cells assessed as DNA ladder formation at 0.3 uM after 4 hrs by DNA electrophoresis
HL-60 [7] = assay: Induction of apoptosis in human HL60 cells assessed as reduction of cell viability at up to 30 uM after 4 hrs by alamar blue assay
HL-60 [8] = assay: Induction of apoptosis in human HL60 cells assessed as activation of caspase 3 at 0.3 uM after 2 hrs by Western blot analysis in presence of caspase 8 inhibitor Z-IETD
HL-60 [9] = assay: Induction of apoptosis in human HL60 cells at 0.3 uM in presence of caspase 9 inhibitor […]
HL-60 [10] = assay: Potentiation of FAS-ligand-induced apoptosis in human HL60 cells at 30 uM
HL-60 [11] = assay: Induction of apoptosis in human HL60 cells assessed as activation of caspase 3 at 0.3 uM after 2 hrs by Western blot analysis in presence of caspase 9 inhibitor […]
HL-60 [12] = assay: Induction of apoptosis in human HL60 cells at 0.3 uM in presence of caspase 8 inhibitor Z-IETD
HL-60 [13] = assay: Induction of apoptosis in human HL60 cells assessed as DNA ladder formation at 30 uM after 4 hrs by DNA electrophoresis
HL-60 [14] = assay: Induction of apoptosis in human HL60 cells assessed as activation of caspase 3 at 0.3 uM after 2 hrs by Western blot analysis in presence of caspase inhibitor Z-VAD
HL-60 [15] = assay: Potentiation of TNF-alpha-ligand-induced apoptosis in human HL60 cells at 30 uM

SMILES | Activity (HL-60 [1]) | Activity (HL-60 [2]) | Activity (HL-60 [3]) | Activity (HL-60 [4]) | Activity (HL-60 [5]) | Activity (HL-60 [6]) | Activity (HL-60 [7]) | Activity (HL-60 [8]) | Activity (HL-60 [9]) | Activity (HL-60 [10]) | Activity (HL-60 [11]) | Activity (HL-60 [12]) | Activity (HL-60 [13]) | Activity (HL-60 [14]) | Activity (HL-60 [15])
CN1C(=O)[C@@]23C[C@]4([C@]56C[C@@]78SS[C@@](CO)(C(=O)N7[C@H]5Nc5ccccc56)N(C)C8=O)c5ccccc5N[C@@H]4N2C(=O)[C@]1(CO)SS3 | inactive | Active | Dose-dependent effect | Active | Active | inactive |  |  |  |  |  |  |  |  | 
CN1C(=O)[C@H]2C[C@]3([C@]45C[C@@H]6C(=O)N(C)[C@H](CO)C(=O)N6[C@H]4Nc4ccccc45)c4ccccc4N[C@@H]3N2C(=O)[C@H]1CO |  |  |  |  |  |  | inactive |  |  |  |  |  |  |  | 
CN1C(=O)[C@]23C[C@@]4([C@@]56C[C@]78SS[C@](CO)(C(=O)N7[C@@H]5Nc5ccccc56)N(C)C8=O)c5ccccc5N[C@H]4N2C(=O)[C@@]1(CO)SS3 | inactive | Active |  | Active | Active | Active |  | inactive | Active | inactive | Active | inactive | inactive | inactive | inactive
